Reference: patent publication US20250205362A1, “LIPID NANOPARTICLES” (NATIONAL UNIVERSITY CORPORATION HOKKAIDO UNIVERSITY, priority 2022, published 2025)
Blank lines part the entries; values can stand above or below the compound they belong to. {IBFQ} = Iowa Black FQ quencher

Tests used:
BALB/c mice = experiment: Measurement of Fluc activity in tissues after iv Fluc mRNA-loaded lipid nanoparticles; type: in vivo, mouse; conditions: Example 1, FIG. 1; Fluc mRNA-loaded LNP 50/10/40/1.5; Balb/c mice iv 0.01 mg mRNA/kg, 6 hours
Protocol: First, lipid nanoparticles encapsulating Fluc mRNA (Fluc mRNA-loaded lipid nanoparticles) were intravenously injected into BALB/c mice (female, 4 weeks old) at a dose of 0.01 mg mRNA/kg body weight. Six hours after intravenous injection, the mice were euthanized, and each tissue was collected, frozen in liquid nitrogen, and stored at −80° C. The tissues were homogenized in passive lysis buffer (Promega) using a bead cell disrupter (Micro Smash MS-100R, TOMY Seiko). Tissue debris was removed by centrifugation and the supernatant was collected. Fluc activity in the supernatant was measured using a luciferase assay system (E1500, Promega) according to the manufacturer's protocol. Luminescence was measured using a luminometer (Luminescencer-PSN, ATTO). The protein concentration was determined using a commercially available measurement kit (BCA Protein Assay Kit, Pierce). Fluc activity was expressed as relative light units (RLU) per mg of protein.

[1] = Encapsulation rate of lipid nanoparticles (Ribogreen); type: physicochemical
Protocol: The encapsulation rate of the lipid nanoparticles was calculated by measuring the amount of encapsulated nucleic acid (the amount of ssODN in the case of RNP-ssODN) using an RNA intercalator Ribogreen (manufactured by Life Technologies).

TTR gene = experiment: Measurement of TTR-KO activity (serum TTR protein, ELISA); type: in vivo, mouse; conditions: FIG. 5; TTR-RNP-ssODN-loaded LNP; mouse serum 7 days after administration
Protocol: Lipid nanoparticles encapsulating Cas9/sgTTR-RNP (Cas9/sgTTR-RNP-loaded lipid nanoparticles) were intravenously injected to BALB/c mice (female, 4 weeks old) at the indicated doses. One week after intravenous injection, the mice were euthanized, blood was collected, and serum was isolated by centrifugation. The TTR protein concentration in the serum was determined using a commercially available ELISA kit (Prealbumin ELISA Kit (mouse), Aviva Systems Biology) according to the manufacturer's protocol. The serum TTR protein concentration of untreated mice was taken as 100%, and the relative value (%) of the serum TTR protein concentration of mice administered with each lipid nanoparticle was taken as the knockout activity (TTR-KO activity) of the lipid nanoparticle.

[2] = Average particle diameter, PdI and zeta potential of lipid nanoparticles (dynamic light scattering); type: physicochemical
Protocol: The mean particle diameter (number average value), ζ-mean particle diameter, and polydispersity index (PdI) of the lipid nanoparticles in PBS(−) (pH 7.4), as well as the zeta potential in 10 mM HEPES buffer (pH 7.4), were measured using an analyzing device, Zetasizer Nano ZS ZEN3600 (Malvern), which utilizes dynamic light scattering.

[3] = Metabolic evaluation: lipid amount in the liver (LC/MS); type: in vivo, mouse; conditions: FIG. 4; Fluc mRNA-loaded LNP iv 0.5 mg mRNA/kg, BALB/c mice; 0.5, 4, 24 hours
Protocol: For liquid chromatography-mass spectrometry (LC/MS) for lipid quantification, liver samples stored at −80° C. prior to analysis were used. Mice were intravenously injected with lipid nanoparticles (0.5 mg RNA/kg body weight) and then liver tissue was harvested.
The tissue was homogenized in 200 μL of water, and the resulting tissue homogenate (50 μL) was subjected to an extraction with 400 μL of acetonitrile/isopropanol (50:50 (v/v)). The extract was centrifuged (4000 rpm, 10 min), the supernatant was filtered, and the filtrate was diluted 50-fold with water/acetonitrile/isopropanol (1:8:8 (v/v)) and transferred to a vial for LC/MS analysis using an Accucore. LC/MS was performed under the following conditions. The parent lipids and their predicted metabolites were detected under optimized conditions. Each lipid molecule was monitored using the following masses: [M+H]^+->916 (CL4H6), 864 (CL4F6), 982 (CL4F10-b-7), 752 (CL4F10-e-2). […]
Specifically, lipid nanoparticles encapsulating Fluc mRNA (Fluc mRNA-loaded lipid nanoparticles) were intravenously injected into BALB/c mice (female, 4 weeks old) at a dose of 0.5 mg mRNA/kg body weight. The mice were euthanized 0.5 hours, 4 hours, or 24 hours after the intravenous injection, and the amount of lipid derived from each lipid nanoparticle in the liver was measured.

factor 7 (F7) = conditions: knockdown of factor 7 (F7) in mouse liver; cited from earlier work
sgTTR-G211-5FAM = experiment: Tm value between sgRNA and ssODN by fluorescence quenching method; type: physicochemical; conditions: with sgTTR-G211-5FAM in Cas9 RNP; FIG. 21(B); n=3
Protocol: To measure the Tm value between sgRNA and ssODN in the RNP complex using the fluorescence quenching method, a FAM-modified sgRNA whose 5′ end was modified with the fluorescent substance FAM and a 20-base-long IBFQ-modified ssODN whose 3′ end was modified with the quenching substance IBFQ were used.
Specifically, IBFQ-modified ssODN (5 equivalents relative to RNP) was added to Cas9 RNP containing FAM-modified sgRNA (final RNP concentration: 2.5 μM) to form an RNP-ssODN complex. The resulting solution (10 μL) was incubated at 10° C., after which the temperature was increased by 1° C. at 10 second intervals. The fluorescence intensity was measured at each temperature from 11 to 70° C. using a thermal cycler (“Dice® Real Time System III”, TaKaRa Bio Inc.). The temperature at which the fluorescence intensity was maximized was taken as the measured Tm value (° C.).

[4] = Fluc mRNA-loaded LNP, cationic lipid/DSPC/cholesterol/PEG-DMG 50/10/40/1.5 mol%, Table 5
[5] = TTR-RNP-ssODN-loaded LNP (ssODN-TTR_3-40%), cationic lipid/DSPC/cholesterol/PEG-DMG 50/10/40/3.5 mol%, Table 8
[6] = Fluc mRNA-loaded LNP, comparison CL4F11-ζ-2, SM, ALC, MC3, Table 21
[7] = Fluc mRNA-loaded LNP, lipid/DSPC/cholesterol/PEG-DMG 50/10/40/1.5 (MC3: 50/10/38.5/1.5) mol%, Table 15
[8] = TTR-RNP-ssODN-loaded LNP, comparison CL4F11-ζ-2, SM, ALC, MC3, Table 20

Encapsulation rate [1, 4]: 94.6%
Encapsulation rate [1, 5]: 86.0%
Number-average particle diameter [2, 4]: 35.3 nm
PdI [2, 4]: 0.196
ζ-average [2, 4]: 65.3 nm
ζ-potential [2, 4]: −3.30 mV
Number-average particle diameter [2, 5]: 82.5 nm
PdI [2, 5]: 0.104
ζ-average [2, 5]: 127.1 nm
ζ-potential [2, 5]: −0.48 mV
Compound: 7-(4-(dipropylamino)butyl)-7-hydroxytridecane-1,13-diylbis(3-heptyldecanoate) [CL4F10-b-7]
Fluc activity (gene transfer ability) in liver and spleen (BALB/c mice): equal to or greater than that of CL4F6
serum TTR activity / gene knockout versus CL4F6 (TTR gene): lower serum TTR activity and higher gene knockout

Encapsulation rate [1, 4]: 91.4%
Encapsulation rate [1, 5]: 84.9%
Number-average particle diameter [2, 4]: 45.1 nm
PdI [2, 4]: 0.267
ζ-average [2, 4]: 81.5 nm
ζ-potential [2, 4]: −4.32 mV
Number-average particle diameter [2, 5]: 99.6 nm
PdI [2, 5]: 0.145
ζ-average [2, 5]: 141.5 nm
ζ-potential [2, 5]: −0.10 mV
Compound: 7-(4-(dipropylamino)butyl)-7-hydroxytridecane-1,13-diylbis(3-hexylnonanoate) [CL4F9-b-6]
Fluc activity (gene transfer ability) in liver and spleen (BALB/c mice): equal to or greater than that of CL4F6
serum TTR activity / gene knockout versus CL4F6 (TTR gene): lower serum TTR activity and higher gene knockout

Compound: CCCCC(CC)CCCCC(=O)OCCCCCCC(O)(CCCCCCOC(=O)CCCCC(CC)CCCC)CCCCN(CCC)CCC (stereo not drawn) [CL4F10-e-2, 7-(4-(dipropylamino)butyl)-7-hydroxytridecane-1,13-diylbis(6-ethyldecanoate)]
amount of lipid in the liver (metabolism) [3]: most of it was degraded within 24 hours after administration

Encapsulation rate [1, 5]: 83.5%
Number-average particle diameter [2, 5]: 80.1 nm
PdI [2, 5]: 0.254
ζ-average [2, 5]: 136.5 nm
ζ-potential [2, 5]: 2.83 mV
Compound: CCCCCCCC/C=C\CCCCCCCC(=O)OCCCCCCC(O)(CCCCCCOC(=O)CCCCCCC/C=C\CCCCCCCC)CCCCN(C(C)C)C(C)C [CL4H6, 7-(4-(diisopropylamino)butyl)-7-hydroxytridecane-1,13-diyl dioleate, reference compound]
amount of lipid in the liver (metabolism) [3]: almost completely disappeared from the liver 24 hours after administration

Compound: CCCCCC/C=C\COC(=O)CCCCCCCC(CCCCCCCC(=O)OC/C=C\CCCCCC)OC(=O)CCCN(C)C [L319]
ED50 in F7 knockdown (factor 7 (F7)): 0.01 mg siRNA/kg

Encapsulation rate [1, 6]: 87.1%
Encapsulation rate [1, 7]: 79.3%
Encapsulation rate [1, 8]: 78.7%
Number-average particle diameter [2, 6]: 71.0 nm
PdI [2, 6]: 0.190
ζ-average [2, 6]: 112.4 nm
ζ-potential [2, 6]: −2.17 mV
Number-average particle diameter [2, 7]: 48.0 nm
PdI [2, 7]: 0.198
ζ-average [2, 7]: 68.6 nm
ζ-potential [2, 7]: 2.19 mV
Number-average particle diameter [2, 8]: 82.7 nm
PdI [2, 8]: 0.213
ζ-average [2, 8]: 155.9 nm
ζ-potential [2, 8]: 0.52 mV
Compound: CCCCC/C=C\C/C=C\CCCCCCCCC(CCCCCCCC/C=C\C/C=C\CCCCC)OC(=O)CCCN(C)C [MC3, DLin-MC3-DMA, reference compound]
ED50 in F7 knockdown (factor 7 (F7)): 0.005 mg siRNA/kg

Compound: CCCCC/C=C\C/C=C\CCCCCCCCOC1(OCCCCCCCC/C=C\C/C=C\CCCCC)CCN(C)CC1 [YSK05]
ED50 in F7 knockdown (factor 7 (F7)): 0.06 mg siRNA/kg

Compound: ssODN-40%-3IBFQ: IBFQ bound to the 3′ end of ssODN-40% (SEQ ID NO 23), 40% matched with the ssON-paired region (DNA AAAAAAAGACGTGGAAAATT; 3' {IBFQ}, sugars by position and backbone not given here)
Tm value (fluorescence quenching) (sgTTR-G211-5FAM): 32 °C

Compound: ssODN-80%-3IBFQ: IBFQ bound to the 3′ end of ssODN-80% (SEQ ID NO 22), 80% matched with the ssON-paired region (DNA AACTGTAGACGTGGCTGTTT; 3' {IBFQ}, sugars by position and backbone not given here)
Tm value (fluorescence quenching) (sgTTR-G211-5FAM): 62 °C
